Measurements reported in ChEMBL document CHEMBL4402595, “Discovery of Orally Bioavailable Chromone Derivatives as Potent and Selective BRD4 Inhibitors: Scaffold Hopping, Optimization, and Pharmacological Evaluation” (J Med Chem, 2020).

Tests used:
[1] = molecular target: T1, Bromodomain-containing protein 4 (Homo sapiens, UniProt O60885); test: Inhibition of BRD4 in poly(I:C)-stimulated human SAECs TLR3-inducible CIG5 gene expression at 10 uM pre-incubated for 24 hrs before poly(I:C) stimulation for 4 hrs by qRT-PCR analysis relative to control
[2] = molecular target: T1, Bromodomain-containing protein 4; test: Inhibition of BRD4 in poly(I:C)-stimulated human SAECs TLR3-inducible IL-6 gene expression at 10 uM pre-incubated for 24 hrs before poly(I:C) stimulation for 4 hrs by qRT-PCR analysis relative to control
[3] = molecular target: T1, Bromodomain-containing protein 4; test: Inhibition of BRD4 in poly(I:C)-stimulated human SAECs TLR3-inducible CIG5 gene expression pre-incubated for 24 hrs before poly(I:C) stimulation for 4 hrs by qRT-PCR analysis
[4] = molecular target: T1, Bromodomain-containing protein 4; test: Inhibition of BRD4 in poly(I:C)-stimulated human SAECs TLR3-inducible IL-6 gene expression pre-incubated for 24 hrs before poly(I:C) stimulation for 4 hrs by qRT-PCR analysis
[5] = molecular target: Bromodomain-containing protein 2 (Homo sapiens, UniProt P25440); test: Binding affinity to recombinant BRD2 BD2 (unknown origin) incubated for 1 hr by TR-FRET assay
Chain of Bromodomain-containing protein 2 (P25440 whole entry): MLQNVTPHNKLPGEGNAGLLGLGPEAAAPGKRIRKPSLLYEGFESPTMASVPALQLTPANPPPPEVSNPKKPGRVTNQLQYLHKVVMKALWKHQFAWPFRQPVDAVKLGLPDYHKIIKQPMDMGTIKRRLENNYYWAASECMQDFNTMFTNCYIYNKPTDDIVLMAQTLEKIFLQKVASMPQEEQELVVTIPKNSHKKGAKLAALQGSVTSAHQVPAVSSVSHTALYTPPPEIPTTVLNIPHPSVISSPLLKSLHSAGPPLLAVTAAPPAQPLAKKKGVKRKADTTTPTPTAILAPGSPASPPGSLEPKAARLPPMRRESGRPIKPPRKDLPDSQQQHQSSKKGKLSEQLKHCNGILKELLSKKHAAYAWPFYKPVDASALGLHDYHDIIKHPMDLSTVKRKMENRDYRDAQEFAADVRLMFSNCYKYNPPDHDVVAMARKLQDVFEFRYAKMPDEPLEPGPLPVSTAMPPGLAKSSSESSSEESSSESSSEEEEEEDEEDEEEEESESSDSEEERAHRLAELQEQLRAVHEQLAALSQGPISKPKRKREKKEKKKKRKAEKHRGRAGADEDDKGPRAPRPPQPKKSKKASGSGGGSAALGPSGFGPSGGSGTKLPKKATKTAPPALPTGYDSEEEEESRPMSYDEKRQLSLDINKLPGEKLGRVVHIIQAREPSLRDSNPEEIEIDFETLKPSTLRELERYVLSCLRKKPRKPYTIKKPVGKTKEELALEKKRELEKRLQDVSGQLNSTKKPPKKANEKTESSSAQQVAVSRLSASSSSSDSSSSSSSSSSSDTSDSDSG

[6] = molecular target: T1, Bromodomain-containing protein 4; test: Binding affinity to recombinant BRD4 BD2 (unknown origin) incubated for 1 hr by TR-FRET assay

Row | SMILES | inhibition [1] | inhibition [2] | also measured
1 | COc1cc(OC)c2c(=O)cc(-c3cc(C)c(OC[C@@H](F)CN4CCCCC4)c(C)c3)oc2c1 | 85% | 90% | –
2 | Cc1cc(-c2nc3ccc(F)cc3c(=O)[nH]2)cc(C)c1O | -4.5% | 62% | –
3 | COc1cc(OC)c2c(=O)cc(-c3cc(C)c(OC[C@H](O)CN4CCOCC4)c(C)c3)oc2c1 | 42% | 82% | –
4 | Cc1cc(-c2nc3ccccc3c(=O)n2C)cc(C)c1O | 18% | 55% | –
5 | COc1cc(OC)c2c(=O)[nH]c(-c3cc(C)c(OC[C@@H](O)CN4CCN(C)CC4)c(C)c3)nc2c1 | 83% | 80% | IC50 [3]: 2600 nM; IC50 [4]: 3500 nM
6 | Cc1cc(-c2nc3cccc(F)c3c(=O)[nH]2)cc(C)c1O | 33% | 62% | –
7 | Cc1cc(-c2nc3ccccc3c(=O)[nH]2)cc(C)c1O | – | 81% | –
8 | O=c1[nH]c(-c2cc(F)c(O)cc2F)nc2ccccc12 | 2.2% | 59% | –
9 | COc1cc(OC)c2c(=O)[nH]c(-c3ccc(C(F)(F)F)cc3)nc2c1 | 45% | – | –
10 | COc1cc(OC)c2c(=O)[nH]c(-c3ccc(O)cc3Cl)nc2c1 | 42% | 66% | –
11 | Cc1cc(-c2nc3cc([N+](=O)[O-])ccc3c(=O)n2C)cc(C)c1O | – | 86% | –
12 | C=CCOc1c(C)cc(-c2cc(=O)c3c(OC)cc(OC)cc3o2)cc1C | 83% | – | –
13 | COc1cc(OC)c2c(=O)cc(-c3cc(C)c(OC[C@H](O)CN(C)C)c(C)c3)oc2c1 | – | 82% | –
14 | Cc1cc(-c2nc3cc(Br)ccc3c(=O)[nH]2)cc(C)c1O | 51% | 15% | –
15 | COc1cc(OC)c2c(=O)[nH]c(-c3ccc(C(F)(F)F)c(C)c3)nc2c1 | – | 45% | –
16 | COc1cc(OC)c2c(=O)cc(-c3cc(C)c(OC[C@@H](O)CN4CCCCC4)c(C)c3)oc2c1 | 100% | 100% | IC50 [3]: 580 nM; IC50 [5]: 1200 nM; IC50 [4]: 540 nM; IC50 [6]: 93 nM
17 | COc1cc(OC)c2c(=O)cc(-c3cc(C)c(OC[C@H](O)CN4CCC(F)(F)CC4)c(C)c3)oc2c1 | 63% | 88% | –
18 | COc1cc(OC)c2c(=O)cc(-c3cc(C)c(OCCO)c(C)c3)oc2c1 | 97% | 98% | IC50 [3]: 2600 nM; IC50 [4]: 2800 nM
19 | COc1cc(OC)c2c(=O)[nH]c(-c3cc(C)c(O)c(C)c3)nc2c1 | – | 75% | –
20 | COc1cc(-c2nc3ccccc3c(=O)[nH]2)cc(OC)c1O | 61% | 59% | –
21 | Cc1cc(-c2nc3ccc(Cl)cc3c(=O)[nH]2)cc(C)c1O | 37% | 53% | –
22 | COc1cc(OC)c2c(=O)[nH]c(-c3cc(C)c(OCCO)c(C)c3)nc2c1 | 84% | 65% | –
23 | COc1cc(OC)c2c(=O)cc(-c3cc(C)c(OC[C@H](O)CN4CCCC4)c(C)c3)oc2c1 | 92% | 99% | IC50 [3]: 1480 nM; IC50 [4]: 970 nM
24 | COc1cc(OC)c2c(=O)[nH]c(-c3cc(C)c(OC[C@@H]4CO4)c(C)c3)nc2c1 | 87% | 83% | –
25 | Cc1cc(-c2nc3cc(-c4ccn(C)n4)ccc3c(=O)[nH]2)cc(C)c1O | 71% | – | –
26 | COc1cc(OC)c2c(=O)[nH]c(-c3ccc(O)cc3)nc2c1 | 81% | 63% | –
27 | Cc1cc(-c2nc3ccc(Br)cc3c(=O)[nH]2)cc(C)c1O | 43% | 25% | –
